Results from paper PMC9354705, “Characterization of TR‐107, a novel chemical activator of the human mitochondrial protease ClpP” (Pharmacology Research & Perspectives, 2022).
“And” between values parts separate entries of the source, which are not always exact repeats. Equal values may be shown once. Read-outs that look alike come from different tables or passages of the source.

What was measured:
MDA‐MB‐231 cells = assay: Cell viability (total cell count, Hoechst stain) in MDA‐MB‐231 cells; type: cell-based, human; details: for IC50: Homo sapiens, MDA-MB-231, 72 h
SUM159 cells = assay: Cell viability (total cell count, Hoechst stain) in SUM159 cells; type: cell-based; details: Homo sapiens, WT cells, 72 h, mean N = 3
Description: Human TNBC cell line SUM159 was a generous gift from Dr. Gary Johnson (the University of North Carolina at Chapel Hill). MDA‐MB‐231 (WT and CLPP‐KO) cells were provided by Dr. Stanley Lipkowitz (National Cancer Institute). MDA‐MB‐231 cells were cultured in RPMI‐1640 media (Gibco, 11875‐093) supplemented with 10% fetal bovine serum (FBS; VWR‐Seradigm, 97068‐085), and 1% antibiotic–antimycotic (anti/anti; ThermoFisher Scientific, 15240062). SUM159 cells were cultured in Dulbecco's modified Eagle's medium: Nutrient Mixture F‐12 (DMEM/F12; Gibco, 11330‐032) supplemented with 5% FBS, 5 μg/ml insulin (Gibco, 12585014), 1 μg/ml hydrocortisone, and 1% anti/anti. Cells were maintained at 5% CO2 and 37°C and periodically tested for mycoplasma.
(§1) Total cell counting assays were performed by seeding MDA‐MB‐231 cells (WT and ClpP‐KO; 4000 cells/well) or SUM159 (WT and ClpP‐KO; 1000 cells/well) in a 96‐well plate (Perkin Elmer, 6005050) and allowed to adhere overnight. The growth medium was then aspirated and replaced with 100 μl of growth medium supplemented with the drug at concentrations indicated in the figure or figure legends. Cells treated with vehicle control (0.1% DMSO, Sigma‐Aldrich D2650) were used as a negative control in all experiments, and cells were incubated with drug‐containing media for 24, 48, or 72 h as indicated in figure legends. Media was then aspirated and replaced with 100 μl Dulbecco's phosphate‐buffered saline (DPBS Gibco, 14190‐144) containing 1 μg/ml Hoechst stain (ThermoFischer Scientific, H3570) and allowed to incubate at 37°C for 30 min. The total cell number was then quantified using the Celigo Imaging Cytometer (Nexcelom).

[1] = target: purified recombinant human ClpP (Homo sapiens, UniProt Q16740); assay: In vitro ClpP activity assay (casein‐FITC degradation); type: biochemical; details: relative to DMSO, read-out: EC50 (nM) ClpP activation
Chain of purified recombinant human ClpP (Q16740 57-277): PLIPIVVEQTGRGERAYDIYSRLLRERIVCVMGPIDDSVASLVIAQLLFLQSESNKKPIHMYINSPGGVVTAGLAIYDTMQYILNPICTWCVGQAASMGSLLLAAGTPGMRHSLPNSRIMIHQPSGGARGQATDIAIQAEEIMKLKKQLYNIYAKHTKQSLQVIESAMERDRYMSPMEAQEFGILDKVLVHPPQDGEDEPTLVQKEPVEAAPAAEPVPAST
Description: Measurement of in vitro activity of purified recombinant human ClpP was performed with a slight modification to the method previously described.[46] Briefly, ClpP activity was measured through the degradation of casein‐FITC (Sigma‐Aldrich, C0528) in the presence of indicated compounds. […] Enzyme and compounds were mixed and incubated in assay buffer for 30 min before adding casein‐FITC substrate. […] Linear slope of fluorescence signal was used to measure ClpP activity and normalized to DMSO control, expressed as RFU/h.

recombinant human ClpP = target: T1, recombinant human ClpP (Homo sapiens, UniProt Q16740); assay: Surface plasmon resonance binding to ClpP; details: steady state, one‐site Langmuir binding model, 25°C; read-out: Kd (SPR)
T1 construct: made in house
T1 sequence (Q16740 57-277): as above
Description: For the surface plasmon resonance (SPR) experiments, recombinant human ClpP was purified as previously described.[46] SPR measurements were performed on a Biacore X100 instrument (Cytiva Life Sciences) at 25°C in buffer (25 mM sodium phosphate, pH 7.5, 200 mM KCl, 0.05% Tween‐20, and 0.004% DMSO). ClpP was immobilized onto flowcell two of a CM5 chip (Cytive Life Sciences) using the amine coupling wizard using Biacore X100 Control Software. A pulse of a mixture of NHS and EDC activated the CM5 chip surface. ClpP was diluted to 100 μg/ml in 10 mM sodium acetate, pH 4.5 immediately prior to use and injected over the activated surface for 180 s. The remaining activated sites were blocked with a pulse of ethanolamine. 12 000 RU of ClpP was captured using this procedure. Flowcell 1 was unmodified and served as a reference. For TR‐107 binding to ClpP, a concentration series of TR‐107 in DMSO was diluted into the buffer to achieve 0.004% final DMSO concentration in all samples. Three replicates were injected for each concentration. Data were blank subtracted and analysis was performed in Biacore X100 Evaluation Software (Cytiva Life Sciences). The steady‐state response was calculated 15 s before the end of injection with a window of 15 s. Data were fitted to a one‐site Langmuir binding model.

[2] = Pharmacokinetic analysis in ICR mice; type: in vivo, mouse; details: male, mouse, plasma, ICR mice
Description: Samples were placed in tubes containing heparin sodium and stored on ice until centrifuged. Blood samples were centrifuged at 6800g for 6 min at 2–8°C within 1 h following sample collection and stored at −80°C. Proteins from plasma sample aliquots (20 μl) were precipitated by the addition of MeOH (400 μl) containing an internal standard (tolbutamide,100 ng/ml), vortexed for 1 min, and centrifuged at 18 000g for 7 min. The supernatant (200 μl) was transferred to 96 well plates for analysis.
Analysis of samples was conducted as follows. […] The PK parameters including Area Under the Curve (AUC[0–∞]) elimination half‐life (t 1/2), maximal plasma concentration (C max), and oral bioavailability (F%) were analyzed by noncompartmental methods.

[3] = Protein binding to plasma proteins (equilibrium dialysis); type: in vitro ADME; details: mouse plasma, read-out: serum‐free fraction
Description: Protein‐binding studies were performed by Eurofins Panlabs, Inc. This assay utilizes equilibrium dialysis in a microplate format, as previously described.[47] Briefly, this analysis is used to determine the bound and unbound fraction of the drug and calculate the percentage of the test compound binding to murine plasma proteins.

[4] = test system: MDA‐MB‐231 or SUM159 cells; assay: Time‐course total cell count in MDA‐MB‐231 or SUM159 cells; type: cell-based, human; details: up to 72 h, both cell lines, vs vehicle control
Description: as §1

[5] = test system: MDA‐MB‐231 and SUM159 cells; assay: Immunoblotting for mitochondrial proteins; type: cell-based, human
Description: Cell lysates were clarified and immunoblotted as described earlier.[45] Membranes were incubated with primary antibodies (Appendix S1) diluted 1:1000 in 1% fish gelatin (Sigma‐Aldrich, G7041)/TBST overnight at 4°C, removed, washed 3 × 5 min in TBST, and placed in their respective 2° antibodies (1:10 000 dilution in 5% milk/TBST) for 1 h. […] Acquired images were processed/quantified using Image Lab software (BioRad) or Image Studio Lite (LI‐COR).

[6] = 100 nM TR‐107, 150 nM TR‐57, or 10 μM ONC201

## N#Cc1cccc(CN2CCc3ncn(Cc4ccc(Cl)cc4)c(=O)c3C2)c1 [TR‐107]
MDA‐MB‐231 cells; WT cells, Hoechst stain, mean N = 3, read-out: IC50 (nM) MDA-MB-231
  IC50: 23 nM
MDA‐MB‐231 cells; media containing galactose, read-out: IC50 (nM) Galactose
  IC50: 9.8 nM
MDA‐MB‐231 cells; media containing glucose, read-out: IC50 (nM) Glucose
  IC50: 19 nM
MDA‐MB‐231 cells; galactose instead of glucose, MDA‐MB‐231, 72 h
  shift of growth inhibition dose–response (IC50) glucose to galactose: ~ 2 fold
SUM159 cells
  IC50: 12 nM
[1]
  EC50: 140 nM
Recombinant human ClpP
  Kd: ~180 nM and 178 nM
[2]; po, 10 mg/kg orally, read-out: exposure (AUC)
  AUC: 2360 ng·h/mL
[2]; 10 mg/kg oral
  AUC(0-inf): 2360 ng·h/mL
[2]; 10 mg/kg oral, read-out: C max
  Cmax: 3.7 µM
[2]; 10 mg/kg oral, read-out: C max (mg/ml)
  Cmax: 0.00144 mg/mL
[2]; 10 mg/kg oral, read-out: T 1/2 (converted)
  half-life: 54 min
[3]
  fraction unbound: 0.1
[4]
  concentrations inhibiting the increase in cell number: > 10 nM
[5]; [6]
  TUFM and TFAM protein levels by 24 h: complete or near‐complete loss
  time at which TUFM and TFAM protein levels began to decline: ~ 6 h
[5]; MDA‐MB‐231 cells, 100 nM
  HSP60 levels: significantly reduced in a time‐dependent manner
